{"source": "patent US5352451A", "about": "“Biological insect control agents and methods of use” (priority 1991, dated 1994)"}
{"biological_target": "T1, EGT (Autographa californica nuclear polyhedrosis virus, UniProt P18569)", "T1 construct": "extracellular medium from wt-AcMNPV infected cells containing significant egt activity; endogenous in cells; host or cells: Spodoptera frugiperda IPLB-SF-21 (SF) cells infected with wild-type AcMNPV; extracellular medium used unpurified; EGT made from the virus's own gene", "T1 sequence (P18569 19-506)": "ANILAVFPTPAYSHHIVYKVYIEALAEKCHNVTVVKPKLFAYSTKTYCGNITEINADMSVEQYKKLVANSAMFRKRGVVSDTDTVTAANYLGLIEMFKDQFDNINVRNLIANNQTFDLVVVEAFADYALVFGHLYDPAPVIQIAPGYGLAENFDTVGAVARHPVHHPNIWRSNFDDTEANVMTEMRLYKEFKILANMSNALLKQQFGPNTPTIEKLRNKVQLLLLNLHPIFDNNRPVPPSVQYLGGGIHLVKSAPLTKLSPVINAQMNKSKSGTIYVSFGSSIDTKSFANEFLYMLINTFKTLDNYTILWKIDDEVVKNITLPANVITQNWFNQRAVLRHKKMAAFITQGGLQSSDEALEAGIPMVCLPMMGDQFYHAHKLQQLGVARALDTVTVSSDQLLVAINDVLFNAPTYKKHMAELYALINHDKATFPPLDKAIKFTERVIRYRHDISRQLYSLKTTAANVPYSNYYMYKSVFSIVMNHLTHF", "assay_type": "biochemical", "conditions": "substrate 1 mM; extracellular medium from wt-AcMNPV infected cells; 0.05 μCi UDP-[U-14C]glucose", "procedure": "Experiments are then performed to more thoroughly investigate the substrate specificity of EGT. In these experiments various substrates (1 mM) are incubated in the presence of extracellular medium from wt-AcMNPV infected cells containing significant egt activity. As controls to ensure that any conjugation observed is due to EGT, each substrate is also incubated with media from uninfected and vEGTZ-infected cells, which cannot produce EGT. 0.05 μCi UDP-[U-^14 C]glucose are added to each reaction. Any compounds which function as substrates for EGT will be conjugated with glucose; they can be detected because the glucose is radioactively labeled.\nSubstrates are incubated in the presence of medium derived from\nappropriately infected cells and 0.05 μCi UDP[U-^14 C]glucose.\nAmounts of glucose transferred are calculated after scintillation countin\nof the appropriate regions of the chromatography plates.\nThe only substrates identified are ecdysone, 20-hydroxyecdysone and makisterone A, all of which are ecdysteriods. No conjugation is observed using medium from mock- or vEGTZ-infected cells, confirming that the activity observed is due to expression of egt.", "units": {"wild type (pmol Glucose transferred)": "pmol"}}
{"smiles": "CC(C)(O)CCC(O)C(C)(O)C1CCC2(O)C3=CC(=O)C4CC(O)C(O)CC4(C)C3CCC12C", "note": "(stereo not drawn) [20-Hydroxyecdysone]", "wild type (pmol Glucose transferred)": 87.8}
{"smiles": "C[C@H]([C@H](O)CCC(C)(C)O)[C@H]1CC[C@@]2(O)C3=CC(=O)[C@@H]4C[C@@H](O)[C@@H](O)C[C@]4(C)[C@H]3CC[C@]12C", "note": "[Ecdysone]", "wild type (pmol Glucose transferred)": 155.7}
{"smiles": "CC(CC(O)C(C)(O)C1CCC2(O)C3=CC(=O)C4CC(O)C(O)CC4(C)C3CCC12C)C(C)(C)O", "note": "(stereo not drawn) [Makisterone A]", "wild type (pmol Glucose transferred)": 89.6}
